Data reported in patent publication US8889874B2, “Imidazolone-chalcone derivatives as potential anticancer agent and process for the preparation thereof” (Council of Scientific and Industrial Research, priority 2010, dated 2014).
Read-outs that look alike come from different tables or passages of the source.

Assays:
Assay in all cases: NCI anticancer screen, SRB assay, 48 h
Assay type in all cases: cell-based, human
OVCAR-5 (ovarian) = settings: Homo sapiens
Procedure, shortened: (§1)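 Compounds were tested across fifty three human cancer cell lines from nine tumour types. Each line got a dose-response curve of at least five concentrations at 10-fold dilutions, with continuous drug exposure and sulforhodamine B protein staining to estimate viability or growth.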

[1] = system: NCI-H522 (non-small cell lung); settings: Homo sapiens
Procedure, shortened: as §1

SK-MEL-5 (melanoma) = settings: Homo sapiens
Procedure, shortened: as §1

UO-31 (renal) = settings: Homo sapiens
Procedure, shortened: as §1

NCI/ADR-RES (ovarian) = settings: Homo sapiens, NCI/ADR-RES
Procedure, shortened: as §1

SF-268 (CNS) = settings: Homo sapiens
Procedure, shortened: as §1

HCT-116 (colon) = settings: Homo sapiens
Procedure, shortened: as §1

MDA-MB-435 (melanoma) = settings: Homo sapiens
Procedure, shortened: as §1

OVCAR-4 (ovarian) = settings: Homo sapiens
Procedure, shortened: as §1

UACC-257 (melanoma) = settings: Homo sapiens
Procedure, shortened: as §1

786-0 (renal) = settings: Homo sapiens
Procedure, shortened: as §1

[2] = system: HOP-62 (non-small cell lung); settings: Homo sapiens
Procedure, shortened: as §1

[3] = system: K-562 (leukemia cell line); settings: Homo sapiens
Procedure, shortened: as §1

TK-10 (renal) = settings: Homo sapiens
Procedure, shortened: as §1

SNB-19 (CNS) = settings: Homo sapiens
Procedure, shortened: as §1

MCF7 (breast) = settings: Homo sapiens
Procedure, shortened: as §1

[4] = system: NCI-H322M (non-small cell lung); settings: Homo sapiens
Procedure, shortened: as §1

RXF 393 (renal) = settings: Homo sapiens
Procedure, shortened: as §1

MALME-3M (melanoma) = settings: Homo sapiens
Procedure, shortened: as §1

HCT-15 (colon) = settings: Homo sapiens
Procedure, shortened: as §1

[5] = system: NCI-H226 (non-small cell lung); settings: Homo sapiens
Procedure, shortened: as §1

OVCAR-8 (ovarian) = settings: Homo sapiens
Procedure, shortened: as §1

SW-620 (colon) = settings: Homo sapiens
Procedure, shortened: as §1

[6] = system: RPMI-8226 (leukemia cell line); settings: Homo sapiens
Procedure, shortened: as §1

[7] = system: EKVX (non-small cell lung); settings: Homo sapiens
Procedure, shortened: as §1

SK-OV-3 (ovarian) = settings: Homo sapiens
Procedure, shortened: as §1

U251 (CNS) = settings: Homo sapiens
Procedure, shortened: as §1

CAKI-1 (renal) = settings: Homo sapiens
Procedure, shortened: as §1

UACC-62 (melanoma) = settings: Homo sapiens
Procedure, shortened: as §1

[8] = 48 h exposure, SRB, read-out: GI50
[9] = read-out: pGI50 (-log of molar concentration causing 50% inhibition of net cell growth) (converted)

In the case of `COc1cc(/C=C/C(=O)c2cccc(-n3cc(-c4ccccc4)[nH]c3=O)c2)ccc1O` [3a, 1-3-[(E)-3-(4-hydroxy-3-methoxyphenyl)-2-propenoyl]phenyl-4-phenyl-2,3-dihydro-1H-2-imidazolone], the GI50 (OVCAR-5 (ovarian); [8]) is reported as 2040 nM, the GI50 (OVCAR-5 (ovarian); [9]) is reported as 2040 nM and the GI50 [1, 8] is reported as 2360 nM. It also gave a GI50 [1, 9] of 2340 nM, a GI50 (SK-MEL-5 (melanoma); [8]) of 1590 nM and a GI50 (SK-MEL-5 (melanoma); [9]) of 1580 nM. For the same compound, the GI50 (UO-31 (renal); [8]) was 2180 nM, the GI50 (UO-31 (renal); [9]) was 2190 nM and the GI50 (NCI/ADR-RES (ovarian); NCl/ADR-RES, 48 h exposure, SRB, read-out: GI50) was 2920 nM. It also gave a GI50 (NCI/ADR-RES (ovarian); [9]) of 2950 nM, a GI50 (SF-268 (CNS); [8]) of 2070 nM and a GI50 (SF-268 (CNS); [9]) of 2090 nM. The GI50 (HCT-116 (colon); [8]) was 1400 nM, the GI50 (HCT-116 (colon); [9]) was 1410 nM and the GI50 (MDA-MB-435 (melanoma); [8]) was 2140 nM. For the same compound, the GI50 (MDA-MB-435 (melanoma); [9]) was 2140 nM, the GI50 (OVCAR-4 (ovarian); [8]) was 5190 nM and the GI50 (OVCAR-4 (ovarian); [9]) was 5250 nM. It also gave a GI50 (UACC-257 (melanoma); [8]) of 6810 nM, a GI50 (UACC-257 (melanoma); [9]) of 6760 nM and a GI50 (786-0 (renal); [8]) of 1350 nM. It also gave a GI50 (786-0 (renal); [9]) of 1350 nM, a GI50 [2, 8] of 1480 nM and a GI50 [2, 9] of 1480 nM. It also gave a GI50 ([3]; K562, 48 h exposure, SRB, read-out: GI50) of 2040 nM, a GI50 ([3]; K562, read-out: pGI50 (-log of molar concentration causing 50% inhibition of net cell growth) (converted)) of 2040 nM and a GI50 (TK-10 (renal); [8]) of 5290 nM. It also gave a GI50 (TK-10 (renal); [9]) of 5250 nM, a GI50 (SNB-19 (CNS); [8]) of 2960 nM and a GI50 (SNB-19 (CNS); [9]) of 2950 nM. The GI50 (MCF7 (breast); [8]) was 1550 nM, the GI50 (MCF7 (breast); [9]) was 1550 nM and the GI50 [4, 8] was 3390 nM. It also gave a GI50 [4, 9] of 3390 nM, a GI50 (RXF 393 (renal); RXF 393, 48 h exposure, SRB, read-out: GI50) of 2270 nM and a GI50 (RXF 393 (renal); RXF-393, read-out: pGI50 (-log of molar concentration causing 50% inhibition of net cell growth) (converted)) of 2290 nM. The GI50 (MALME-3M (melanoma); Malme-3M, read-out: pGI50 (-log of molar concentration causing 50% inhibition of net cell growth) (converted)) was 2690 nM, the GI50 (MALME-3M (melanoma); MALME-3M, 48 h exposure, SRB, read-out: GI50) was 2670 nM and the GI50 (HCT-15 (colon); [8]) was 2730 nM. It also gave a GI50 (HCT-15 (colon); [9]) of 2750 nM, a GI50 [5, 8] of 2600 nM and a GI50 [5, 9] of 2570 nM. The GI50 (OVCAR-8 (ovarian); [8]) was 4110 nM, the GI50 (OVCAR-8 (ovarian); [9]) was 4070 nM and the GI50 (SW-620 (colon); [8]) was 2290 nM. It also gave a GI50 (SW-620 (colon); [9]) of 2290 nM, a GI50 [6, 8] of 1670 nM and a GI50 [6, 9] of 1660 nM. It also gave a GI50 [7, 8] of 3900 nM, a GI50 [7, 9] of 3890 nM and a GI50 (SK-OV-3 (ovarian); [8]) of 3760 nM. It also gave a GI50 (SK-OV-3 (ovarian); [9]) of 3800 nM, a GI50 (U251 (CNS); U-251, 48 h exposure, SRB, read-out: GI50) of 2110 nM and a GI50 (U251 (CNS); U-251, read-out: pGI50 (-log of molar concentration causing 50% inhibition of net cell growth) (converted)) of 2090 nM. For the same compound, the GI50 (CAKI-1 (renal); [8]) was 2190 nM, the GI50 (CAKI-1 (renal); [9]) was 2190 nM and the GI50 (UACC-62 (melanoma); [8]) was 2010 nM. It also gave a GI50 (UACC-62 (melanoma); [9]) of 2000 nM.
